The results in this text go back to patent US11324725B2, “Compositions and methods for the inhibition of pruritus” (The United States of America, as represented by the …, priority 2017, dated 2022).

“Also recorded” adds a separate entry of the source.

For the experiment, the target named is T1, hNpr2 (Homo sapiens, UniProt P20594).
T1 sequence (P20594 23-1047): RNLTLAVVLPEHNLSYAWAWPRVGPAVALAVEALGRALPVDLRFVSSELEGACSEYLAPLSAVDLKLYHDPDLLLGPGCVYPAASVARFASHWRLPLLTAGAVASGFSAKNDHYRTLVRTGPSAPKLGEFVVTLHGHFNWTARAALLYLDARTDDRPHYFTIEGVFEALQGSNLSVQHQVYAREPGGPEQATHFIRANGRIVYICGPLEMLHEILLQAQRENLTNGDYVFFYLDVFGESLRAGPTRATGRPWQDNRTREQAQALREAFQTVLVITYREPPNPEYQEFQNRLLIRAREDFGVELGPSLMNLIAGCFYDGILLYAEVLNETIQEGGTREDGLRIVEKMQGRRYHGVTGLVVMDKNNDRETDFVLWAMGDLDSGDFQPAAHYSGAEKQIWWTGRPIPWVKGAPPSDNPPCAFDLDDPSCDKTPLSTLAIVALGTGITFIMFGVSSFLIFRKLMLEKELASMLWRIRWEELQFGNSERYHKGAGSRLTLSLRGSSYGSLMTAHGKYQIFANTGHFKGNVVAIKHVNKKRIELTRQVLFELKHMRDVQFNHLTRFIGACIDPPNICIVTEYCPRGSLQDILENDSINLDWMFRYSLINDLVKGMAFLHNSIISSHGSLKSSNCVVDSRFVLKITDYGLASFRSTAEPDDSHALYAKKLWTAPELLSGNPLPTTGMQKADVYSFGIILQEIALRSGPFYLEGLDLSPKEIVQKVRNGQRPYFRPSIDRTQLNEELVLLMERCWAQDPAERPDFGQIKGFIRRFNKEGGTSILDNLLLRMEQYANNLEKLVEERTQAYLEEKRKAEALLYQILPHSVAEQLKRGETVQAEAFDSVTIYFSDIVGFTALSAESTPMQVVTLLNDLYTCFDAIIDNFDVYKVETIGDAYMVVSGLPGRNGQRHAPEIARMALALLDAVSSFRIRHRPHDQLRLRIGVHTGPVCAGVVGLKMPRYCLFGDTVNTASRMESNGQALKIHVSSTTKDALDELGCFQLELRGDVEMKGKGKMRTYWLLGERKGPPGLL
Put plainly: Counter-screen, Nppc-stimulated HEK-hNpr2-cGMP-sensor cells. Particulars: for IC50 / Imax: 1 nM Nppc-stimulated; for Imax: read-out: Imax, HEK-hNpr2-cGMP-sensor cells, −100% = no agonist; for Inhibition of Nppc-induced hNpr2 activity (in words): HEK-hNpr2-cGMP-sensor cells. It counts as cell-based. The text has this: In order to identify small molecular compounds that inhibit the Npr1 receptor a high-throughput assay to probe inhibition of the receptor guanylate cyclase Npr1 was developed. The assay was designed taking advantage of Promega's GloSensor™ technology (Promega, Madison, Wis.). This technology involves the expression of a cyclic guanosine monophosphate (cGMP) biosensor, comprised of a firefly luciferase variant that was coupled to the cGMP binding domain of human phosphodiesterase 5A, and loading of cells with a cell-permeable luciferase substrate to monitor cGMP production by Npr1 in real time in live cells. Briefly, human embryonic kidney 293 cells stably expressing the human Npr1 and the pGloSensor™-40F cGMP vector (“pGloSensor™-40F”) were generated. Stimulating these cells with the Npr1 agonists human NppA or NppB, luciferase-induced light production could be detected in a dose-dependent manner. HEK293 cells stably expressing human Npr2 and pGS-40F and cells only expressing pGS-40F were also generated to conduct secondary counter screens. In these cells, NppC or sodium nitroprusside were used to stimulate Npr2 or soluble guanylate cyclase which is endogenously expressed in HEK293 cells, respectively. The Npr2-NppC counter screen was employed to search for agents that minimally effected this agonist-receptor interaction. The Npr2-NppC system was used because the side effects of most drugs occur on related receptors. Npr1 and Npr2 are the most related receptors in sequence and function and there are no additional active receptor subtypes in this family of receptors. The procedure is described in detail below.
Counter-screens were performed with HEK293-hNpr2-cGMP-sensor and HEK293-cGMP-sensor cells. These cells were stimulated with 1 nM NppC or 50 μM sodium nitroprusside, respectively, but otherwise the assay was conducted as described for HEK-hNpr1-cGMP-sensor cells. Pre-agonist controls were the same for all three assays, but normalization of post-agonist data differed between assays. For HEK-hNpr1-cGMP-sensor cells, −100% activity in post-agonist data was defined as described for primary screening, while for HEK-hNpr2-cGMP-sensor and HEK-cGMP-sensor cells, the average signal of DMSO-treated wells with 2% GloSensor™ reagent and the respective agonist was defined as 0% and the average signal of wells without agonist as −100% activity and data were normalized accordingly. Compounds directly interacting with the pGloSensor™-40F reporter system in HEK293 cells stimulated with sodium nitroprusside were eliminated as false positives. Effects of compounds on HEK293 cells stimulated with NppC and stably expressing hNpr2 and pGS-40F were tested for receptor selectivity.
On the technique in general: A counterscreen serves to expose hits that act by an unwanted route or on another target.

Usually IC50 stands for the point on the concentration scale where inhibition reaches its midpoint. Read a low IC50 as greater potency.

With `Cl.O=C1Nc2ccccc2CN(CC2CCCCC2)C12CCNCC2` [JS-1, 4-(cyclohexylmethyl)-4,5-dihydrospiro[benzo[e][1,4]diazepine-3,4′-piperidin]-2(1H)-one hydrochloride], the IC50 turned out to be 7.2 ± 1.3 µM and the Imax was -106 ± 8%.

For the compound `O=C(Cc1ccc(Cl)cc1)N1Cc2ccccc2CC2(CCCN2CC2CCNC2)C1` (stereo not shown) [JS-2, 2-(4-chlorophenyl)-1-(1′-(pyrrolidin-3-ylmethyl)-1,5-dihydrospiro[benzo[c]azepine-4,2′-pyrrolidin]-2(3H)-yl)ethan-1-one], the IC50 came to 6.4 ± 1.1 µM and the Imax is -88 ± 5%.

With `CCC(CC)c1cc([C@H]2CN3CC[C@H]2C[C@@H]3CNS(=O)(=O)c2cccs2)nc(-c2ccncc2)n1` [JS-3, N-(((2R,4S,5R)-5-(6-(pentan-3-yl)-2-(pyridin-4-yl)pyrimidin-4-yl)quinuclidin-2-yl)methyl)thiophene-2-sulfonamide], the IC50 worked out at 17 ± 20 µM and the Imax is -126 ± 23%.

On to `COc1cc(CN2CCC(C)(NC(C)=O)CC2)cc(-c2ccncc2)c1` [JS-4, N-(1-(3-methoxy-5-(pyridin-4-yl)benzyl)-4-methylpiperidin-4-yl)acetamide], for which the IC50 is 11 ± 1.2 µM and the Imax was -100 ± 5%.

Consider `Cc1noc(C)c1-c1cc(-c2ccccc2Oc2ccccc2)cn2cncc12` [JS-5, 3,5-dimethyl-4-(6-(2-phenoxyphenyl)imidazo[1,5-a]pyridin-8-yl)isoxazole], for which half-maximal inhibition (IC50) required 12 ± 1.1 µM, the “Inhibition of Nppc-induced hNpr2 activity (in words)” value (shortened to “Inhibition”) is “inhibited hNpr2 with similar potency to hNpr1; also recorded: antagonizes natriuretic peptide-induced activation” and the Imax is -97 ± 4%.

As to `COc1ccccc1-c1n[nH]c2ncc(C(=O)NCc3cccnc3)nc12` [JS-6, 3-(2-methoxyphenyl)-N-(pyridin-3-ylmethyl)-1H-pyrazolo[3,4-b]pyrazine-5-carboxamide], inhibition was half-maximal at 6.9 ± 1.1 µM (IC50) and the Imax was -102 ± 3%.

For `O=C(NCc1cccnc1)c1cnc2[nH]nc(-c3ccccc3)c2n1` [JS-7, 3-phenyl-N-(pyridin-3-ylmethyl)-1H-pyrazolo[3,4-b]pyrazine-5-carboxamide], half-maximal inhibition (IC50) required 16 ± 1.3 µM and the Imax was -122 ± 11%.

As to `Cc1nn2c(c1-c1ccccc1OCc1ccccc1)N(C(=O)Cc1ccc3c(c1)OCO3)CCC2` [JS-8, 2-(benzo[d][1,3]dioxol-5-yl)-1-(3-(2-(benzyloxy)phenyl)-2-methyl-6,7-dihydropyrazolo[1,5-a]pyrimidin-4(5H)-yl)ethan-1-one], half-maximal inhibition (IC50) was put at 9.1 ± 1.4 µM, the “Inhibition” value was “inhibited hNpr2 with similar potency to hNpr1; also recorded: antagonizes natriuretic peptide-induced activation” and the Imax was -127 ± 13%.

As for `Cc1nn2c(c1-c1ccccc1OCc1ccccc1)N(C(=O)Cc1ccccn1)CCC2` [JS-9, 1-(3-(2-(benzyloxy)phenyl)-2-methyl-6,7-dihydropyrazolo[1,5-a]pyrimidin-4(5H)-yl)-2-(pyridin-2-yl)ethan-1-one], half-maximal inhibition (IC50) required 20 ± 16 µM and the Imax is -102 ± 16%.

Regarding `Cc1nn2c(c1-c1ccccc1Oc1ccccc1)N(C(=O)Cc1ccc3c(c1)OCO3)CCC2` [JS-10, 2-(benzo[d][1,3]dioxol-5-yl)-1-(2-methyl-3-(2-phenoxyphenyl)-6,7-dihydropyrazolo[1,5-a]pyrimidin-4(5H)-yl)ethan-1-one], the midpoint of inhibition, the IC50, lay at 5.4 ± 1.4 µM and the Imax is -86 ± 5%.

For `Cc1cc(CNC(=O)c2ccc3c(c2)n(CC2CC2)c(=O)n3C2CCCCC2)on1` [JS-11, 1-cyclohexyl-3-(cyclopropylmethyl)-N-((3-methylisoxazol-5-yl)methyl)-2-oxo-2,3-dihydro-1H-benzo[d]imidazole-5-carboxamide], the IC50 turned out to be 5 ± 1.1 µM, the “Inhibition” value is “inhibited hNpr2 with similar potency to hNpr1; also recorded: antagonizes natriuretic peptide-induced activation” and the Imax is -97 ± 4%.

`COc1ccc(C2(C(=O)N3CCC4(CC3)c3nccn3-c3ccccc3CN4C)CC2)cc1` [JS-12, (1-(4-methoxyphenyl)cyclopropyl)(5-methyl-5,6-dihydrospiro[benzo[f]imidazo[1,2-a][1,4]diazepine-4,4′-piperidin]-1′-yl)methanone]: the IC50 was 5.7 ± 1.1 µM and the Imax is -96 ± 4%.

For the compound `N#Cc1ccccc1CN1CCCC(C(=O)NCc2ccccc2)CCNC(=O)CC1` (stereo not shown) [JS-13, N-benzyl-1-(2-cyanobenzyl)-4-oxo-1,5-diazacycloundecane-8-carboxamide], the IC50 is 5.9 ± 1.3 µM and the Imax was -108 ± 8%.

Regarding `CN(Cc1ccccc1)C(=O)c1cn2ccnc(-c3ccccc3)c2n1` [JS-14, N-benzyl-N-methyl-8-phenylimidazo[1,2-a]pyrazine-2-carboxamide], it took 20 ± 1.1 µM to reach half-maximal inhibition (IC50) and the Imax is -91 ± 8%.
